Assay results taken from patent publication US20150139979A1, “METHODS OF TREATING A DISEASE OR DISORDER ASSOCIATED WITH BRUTON'S TYROSINE KINASE” (Celgene Avilomics Research, Inc., priority 2013, published 2015).
Where two headings read alike, the source gives them in different places.

How the values were obtained:
Solubility = type: physicochemical
[1] = system: B-cell non-Hodgkin lymphoma; assay: Single agent clinical study in B-cell non-Hodgkin lymphoma; type: in vivo
Procedure: As of Sep. […] See U.S. patent application Ser. No. 13/661,678 and International Patent Application No. PCT/US2012/062133, both filed on Oct. 26, 2012, each of which is hereby incorporated by reference in its entirety. […] Studies are ongoing and additional dose levels currently being investigated include: 1000 mg QD, 1250 mg QD, 375 mg BID and 500 mg BID.

Environmental stability = type: physicochemical

SMILES | solubility (Solubility; ethanol, organic solvent or mixture, read-out: solubility in ethanol) [µg/mL] | solubility (Solubility; water, read-out: solubility in water) [µg/mL] | evaluable B-NHL patients with decreased lymph node size ([1]; monotherapy) | patients with B-cell non-Hodgkin lymphoma who experienced stable disease ([1]; monotherapy, as of Sep. 11, 2012) | environmental instabilities (heat, acid, base) (Environmental stability) | maximum tolerated dose (MTD) ([1]; single agent, up to 750 mg PO QD)
C=CC(=O)Nc1cccc(Nc2nc(Nc3ccc(OCCOC)cc3)ncc2F)c1.O=S(=O)(O)c1ccccc1 [Compound 1 besylate, N-(3-(5-fluoro-2-(4-(2-methoxyethoxyl)phenylamino)pyrimidin-4-ylamino)phenyl)acrylamide besylate] | ~10000 | ~160 | Six of eleven | 9 out of 17 | no environmental instabilities | 
C=CC(=O)Nc1cccc(Nc2nc(Nc3ccc(OCCOC)cc3)ncc2F)c1 [Compound 1, N-(3-(5-fluoro-2-(4-(2-methoxyethoxyl)phenylamino)pyrimidin-4-ylamino)phenyl)acrylamide] |  |  |  |  |  | has not yet been reached
